Data: patent publication US6620961B1, “Biarylalkylenecarbamic acid derivatives and bacteriocides for agricultural and horticultural use” (Kumiai Chemical Industry Co., Ltd., priority 1997, dated 2003)

Tests used:
Erysiphe graminis = experiment: Test for Preventive Effect on Wheat Powdery Mildew; type: in vivo; design: key: A: No diseased area; B: Diseased area of less than 25%; C: Diseased area of at least 25% but less than 50%; Diseased area of at least 50%; conditions: wheat seedlings (Norin-61-go), 500 ppm active ingredient, 10 ml per pot, 10 days after inoculation
Procedure: [table] Test for Preventive Effect on Wheat Powdery Mildew 9 wheat seeds (variety: […] Then, the seedlings were inoculated with […] graminis spores in suspension and placed in a greenhouse at 25 to 30° C. 10 days after the inoculation, the total diseases area of the first leaves in each pot was observed and evaluated on the basis of the standards shown in Table 59. The results are shown in Tables 67 to 71.

Venturia inaequalis = experiment: Test for Preventive Effect on Apple Scab; type: in vivo; design: key: A: No diseased area; B: Diseased area of less than 25%; C: Diseased area of at least 25% but less than 50%; Diseased area of at least 50%; conditions: 14 days after inoculation; for Evaluation (diseased areas of the upper two of the inoculated leaves): apple seedlings, wettable powder at 500 ppm active ingredient, preventive; for Evaluation (diseased area of the upper two inoculated leaves): apple seedlings (Kogyoku), 500 ppm active ingredient, 20 ml per pot
Procedure: [table] Test for Preventive Effect on Apple Scab 5 apple seeds (variety: Kogyoku) were sown in each 9 cm×9 cm polyvinyl chloride pot and grown in a greenhouse for 20 days. […] Then, the seedlings were inoculated with Venturia inaequalis spores in suspension by spraying and immediately placed in a moist chamber at 22° C. for 48 hours. Thereafter, the seedlings were placed in a greenhouse for development of the disease. 14 days after the inoculation, the diseased areas of the upper two of the inoculated leaves were observed and evaluated on the basis of the standards shown in Table 59.

Row | Compound | Evaluation (total diseased area of the first leaves in each pot) (Erysiphe graminis) | Evaluation (diseased areas of the upper two of the inoculated leaves) (Venturia inaequalis) | Evaluation (diseased area of the upper two inoculated leaves) (Venturia inaequalis)
1 | CCCN(Cc1cccc(-c2ccccc2)c1)C(=O)OC [1-166] | B (Diseased area of less than 25%) | B (Diseased area of less than 25%) | 
2 | COC(=O)NCc1cc(C)cc(-c2ccc(C)cc2)c1 [2-97] | A | A | 
3 | COC(=O)NCc1cccc(-c2ccc(C)c([N+](=O)[O-])c2)c1 [1-137] |  | A | 
4 | COC(=O)NCc1cc(C)cc(-c2ccc(Cl)cc2)c1 [2-95] | A | A | 
5 | COC(=O)NCc1cc(-c2ccc(C(C)C)cc2)ccc1F [2-114] | A | A | 
6 | CCC(NC(=O)OC)c1cccc(-c2ccccc2)c1 (racemic) [3-101] | B (Diseased area of less than 25%) |  | 
7 | COC(=O)NC(C)c1cccc(-c2ccc(Cl)cc2Cl)c1 (racemic) [3-18] | A |  | A
8 | COC(=O)NCc1ccc(F)c(-c2cccc(C)c2)c1 [2-22] | B (Diseased area of less than 25%) | A | 
9 | CCCCOC(=O)NCc1cccc(-c2ccccc2)c1 [1-148] | B (Diseased area of less than 25%) |  | 
10 | CCc1ccc(-c2cccc(CNC(=O)OC)c2)cc1 [1-14] | B (Diseased area of less than 25%) | A | 
11 | COC(=O)NCc1cc(-c2ccc(F)c(Cl)c2)ccc1Cl [2-465] | A |  | A
12 | COCN(Cc1cccc(-c2cccc(C)c2)c1)C(=O)OC [1-194] | A | A | 
13 | C#CCN(Cc1cccc(-c2ccccc2)c1)C(=O)OC [1-178, Methyl N-(3-phenylbenzyl)-N-(2-propynyl)carbamate] | A | A | 
14 | COC(=O)NCc1cc(-c2ccc(C(F)(F)F)cc2)ccc1OC [2-344] |  |  | A
15 | COC(=O)NC(C)c1cccc(-c2ccc(C)cc2)c1 (racemic) [3-7] | A |  | A
16 | COC(=O)NCc1cc(-c2ccc(C(C)=O)cc2)ccc1Cl [2-451] |  |  | B (Diseased area of less than 25%)
17 | COC(=O)NCc1cccc(-c2ccccc2C)c1 [1-10] | A | A | 
18 | COCN(Cc1cccc(-c2ccc(C)cc2)c1)C(=O)OC [1-195] | A | A | 
19 | COC(=O)NC(C)c1cccc(-c2ccc(C(F)(F)F)cc2)c1 (racemic) [3-17] | A |  | A
20 | COC(=O)NCc1cccc(-c2ccc(OC(F)(F)F)cc2)c1 [1-72] | A | A | 
21 | COC(=O)NC(C)c1cc(-c2ccc(C)cc2)ccc1F (racemic) [3-32] | B (Diseased area of less than 25%) |  | B (Diseased area of less than 25%)

Row | Compound | Evaluation (total diseased area of the first leaves in each pot) (Erysiphe graminis) | Evaluation (diseased areas of the upper two of the inoculated leaves) (Venturia inaequalis) | Evaluation (diseased area of the upper two inoculated leaves) (Venturia inaequalis)
22 | COCN(Cc1cccc(-c2ccc(OC)cc2)c1)C(=O)OC [1-198] | A | A | 
23 | COC(=O)N(Cc1cccc(-c2ccccc2)c1)OC [1-264] | A | A | 
24 | COC(=O)NCc1cccc(-c2ccccc2OC)c1 [1-40] | A | A | 
25 | COC(=O)NCc1cccc(-c2ccc(C(C)C)cc2)c1 [1-18] | A | A | 
26 | CCC(NC(=O)OC)c1cccc(-c2ccc(Cl)cc2)c1 (racemic) [3-105] | B (Diseased area of less than 25%) |  | 
27 | CCN(Cc1cccc(-c2ccccc2)c1)C(=O)OC [1-165] | B (Diseased area of less than 25%) | A | 
28 | CCc1ccc(-c2ccc(F)c(CNC(=O)OC)c2)cc1 [2-112] | B (Diseased area of less than 25%) | A | 
29 | COC(=O)N(Cc1cccc(-c2cccc(Cl)c2)c1)OC [1-275] | A | A | 
30 | COCN(Cc1cccc(-c2ccccc2)c1)C(=O)OC [1-192, Methyl N-methoxymethyl-N-(3-phenylbenzyl)carbamate] | A | A | 
31 | COC(=O)NCc1cccc(-c2ccc(Cl)cc2Cl)c1 [1-117] |  | A | 
32 | CCOC(=O)NCc1cccc(-c2ccccc2)c1 [1-146] | B (Diseased area of less than 25%) | B (Diseased area of less than 25%) | 
33 | COC(=O)NCc1cc(-c2ccc(F)c(F)c2)ccc1Cl [2-461] | A |  | A
34 | COCN(Cc1cccc(-c2ccccc2C)c1)C(=O)OC [1-193] | B (Diseased area of less than 25%) | A | 
35 | COC(=O)NC(C)c1cc(-c2ccccc2)ccc1F (racemic) [3-26] | B (Diseased area of less than 25%) |  | A
36 | COC(=O)N(C)Cc1cccc(-c2ccccc2)c1 [1-163] | A | A | 
37 | COC(=O)N(Cc1cccc(-c2ccccc2)c1C)OC [4-22, Methyl N-methoxy-N-(2-methyl-3-phenylbenzyl)carbamate] | A |  | A
38 | COC(=O)NCc1cccc(-c2ccc3ccccc3c2C)c1 [6-1] | B (Diseased area of less than 25%) |  | A
39 | COC(=O)NCc1cccc(-c2ccc(F)c(Cl)c2)c1 [1-122] | A | A | 
40 | CCC(NC(=O)OC)c1cccc(-c2ccc(C)cc2)c1 (racemic) [3-107] | B (Diseased area of less than 25%) |  | B (Diseased area of less than 25%)
41 | CN(C)C(=O)NCc1cccc(-c2ccccc2)c1 [1-262] |  | B (Diseased area of less than 25%) | 
